{"source": "patent US9451768B2", "about": "“Biocidal compositions and methods of use” (priority 2009, dated 2016)", "key": {"[1]": {"tested_on": "Psedomonas aeruginosa ATCC 10145 and Staphylococcus aureus ATCC 6538", "experiment": "MBC against aerobic bacteria, 37° C., 24 hour (Example 2)", "type": "cell-based", "protocol": "(§1) The synergy indexes reported in the following examples are calculated using the following equation: Synergy Index=Ca/CA+Cb/CB\n(§2) Various methods known to those skilled in the art can be used for evaluating biocidal efficacy. In the examples below, aliquots of the treated samples are removed at predetermined time points and the concentration required to achieve a certain level or complete bacterial kill is determined by culture-based methods including serial dilution. In some examples, the method is based or adapted (e.g., for high temperature testing or for the presence of sulfide) from the methodology described in international application PCT/US08/075,755, filed Sep. 10, 2008, which is incorporated herein by reference.\nA sterile NaCl solution (0.85%) is contaminated with Psedomonas aeruginosa ATCC 10145 and Staphylococcus aureus ATCC 6538 at a final bacterial concentration of ˜10^6 CFU/ml. Aliquots of this contaminated water are then treated with biocide solution (single or in combination) at various concentrations."}, "[2]": {"tested_on": "oil field isolated anaerobic SRB consortium", "experiment": "MBC against anaerobic SRB consortium, 40° C., 24 hour (Example 1)", "type": "cell-based, anaerobic sulfate-reducing bacteria (SRB)", "protocol": "as §1, §2\nInside an anaerobic chamber, a deaerated sterile salt solution (3.1183 g of NaCl, 1.3082 mg of NaHCO3, 47.70 mg of KCl, 72.00 mg of CaCl2, 54.49 mg of MgSO4, 172.28 mg of Na2SO4, 43.92 mg of Na2CO3 in 1 L water) is contaminated with an oil field isolated anaerobic SRB consortium at final bacterial concentrations of 10^6-10^7 CFU/mL. Aliquots of this contaminated water are then treated with biocide solution (single or in combination) at various concentrations."}, "[3]": {"tested_on": "mixed bacteria consortium (Pseudomonas aeruginosa ATCC 10145, Pseudomonas aeruginosa ATCC 15422, Enterobacter aerogenes ATCC 13048, Escherichia coli ATCC …)", "experiment": "Re-challenge test against aerobic mixed bacteria consortium (Example 3)", "type": "cell-based", "settings": "ambient temperature; for Dose required for ≧4 log10 bacteria reduction (ppm), CTAC: CTAC alone or CTAC part of DBNPA/CTAC combination; for Dose required for ≧4 log10 bacteria reduction (ppm), DBNPA: DBNPA alone or DBNPA part of DBNPA/CTAC combination", "protocol": "as §1, §2\n(§3) DBNPA and CTAC is added to a sterile solution of synthetic surface water (CaCl2 0.2203 g, MgSO4 0.1847 g, NaHCO3 0.1848 g, DI water 1 L) both alone and in various combinations. An initial inoculum of a mixed bacteria consortium (Pseudomonas aeruginosa ATCC 10145, Pseudomonas aeruginosa ATCC 15422, Enterobacter aerogenes ATCC 13048, Escherichia coli ATCC 11229, Klebsiella pneumoniae ATCC 8308, Staphylococcus aureus ATCC 6538, Salmonella choleraesuis ATCC 10708) is added to each biocidal solution at a final concentration of 5×10^6 CFU/mL. After 2, 6 and 13 days, the biocidal solutions are re-challenged with the same bacteria consortium to a final concentration of 5×10^4 CFU/mL of additional bacteria. All treatments are incubated at ambient temperatures. The results are shown in Table 7 which reports the biocide concentrations required to achieve a ≧4 log10 kill reduction in microorganisms."}, "[4]": {"tested_on": "oil field isolated anaerobic SRB consortium", "experiment": "Anaerobic bacteria under high temperature, sulfide-rich and re-challenge conditions (Example 5)", "type": "cell-based, anaerobic sulfate-reducing bacteria (SRB)", "settings": "80° C., daily challenge with SRB and 10 ppm sulfide ion", "protocol": "as §1, §2\nInside an anaerobic chamber, biocide solutions of DBNPA, CTAC, and DBNPA/CTAC combinations at various concentrations are prepared in a salt solution (3.1183 g of NaCl, 1.3082 mg of NaHCO3, 47.70 mg of KCl, 72.00 mg of CaCl2, 54.49 mg of MgSO4, 172.28 mg of Na2SO4, 43.92 mg of Na2CO3 in 1 L water). […] After heating at 80 C for 2 hours, biocidal efficacy is evaluated against the field SRB consortium at 40° C. for 2 h. The same samples, after heating for 1 day to 7 days at 80 C, are evaluated against the field SRB consortium at 40 C for 24 h. […]"}, "[5]": {"tested_on": "oil field isolated anaerobic SRB consortium", "experiment": "Anaerobic bacteria under sulfide-rich and multiple challenge conditions (Example 4)", "type": "cell-based, anaerobic sulfate-reducing bacteria (SRB)", "settings": "room temperature, daily challenge with SRB and 10 ppm sulfide ion", "protocol": "as §1\nas §2, with “10, 2008, which is incorporated herein by reference.” left out\nInside an anaerobic chamber, biocide solutions of DBNPA, CTAC, and DBNPA/CTAC combinations at various concentrations are prepared in a salt solution (3.1183 g of NaCl, 1.3082 mg of NaHCO3, 47.70 mg of KCl, 72.00 mg of CaCl2, 54.49 mg of MgSO4, 172.28 mg of Na2SO4, 43.92 mg of Na2CO3 in 1 L water). […] The viable bacteria left in the mixtures is determined at different incubation times up to 7 days, using a serial dilution method. Bacterial log reduction is then calculated. The biocidal efficacy is determined by selecting the lowest biocide concentration required to achieve at least a 99.9% bacterial reduction for all three of the following time points: 2 hour, 1 day, and 7 days. Synergy index is then calculated."}, "[6]": {"tested_on": "mixed bacteria consortium (Pseudomonas aeruginosa ATCC 10145, Pseudomonas aeruginosa ATCC 15422, Enterobacter aerogenes ATCC 13048, Escherichia coli ATCC …)", "experiment": "Ternary DBNPA, CTAC and bronopol combination, re-challenge test against mixed bacteria consortium (Example 6)", "type": "cell-based, mixed aerobic bacteria", "settings": "for Dose required for >4 log10 bacterial reduction vs. control, CTAC: CTAC alone or CTAC part of DBNPA:bnpd:CTAC combination; for Dose required for >4 log10 bacterial reduction vs. control, bnpd: bnpd alone or bnpd part of DBNPA:bnpd:CTAC combination; for Dose required for >4 log10 bacterial reduction vs. control, DBNPA: DBNPA alone or DBNPA part of DBNPA:bnpd:CTAC combination", "protocol": "as §1, §2\nas §3, with “DBNPA, bronopol, and” for “DBNPA and”, “CTAC are” for “CTAC is”, “g, deionized” for “g, DI”, “Table 10” for “Table 7”"}, "[7]": {"settings": "CTAC alone or CTAC part of DBNPA/CTAC combination"}, "[8]": {"settings": "Day 3 after initial inoculation"}, "[9]": {"settings": "Day 20 after initial inoculation"}, "[10]": {"settings": "Day 27 after initial inoculation"}, "[11]": {"settings": "tris nitro alone or tris nitro part of DBNPA/tris nitro combination"}, "[12]": {"settings": "HHT alone or HHT part of DBNPA/HHT combination"}, "[13]": {"settings": "DBNPA alone or DBNPA part of DBNPA/CTAC combination"}, "[14]": {"settings": "DBNPA alone or DBNPA part of DBNPA/HHT combination"}, "[15]": {"settings": "DBNPA alone or DBNPA part of DBNPA/tris nitro combination"}}}
{"smiles": "ClC=CC[N+]12CN3CN(CN(C3)C1)C2", "note": "[CTAC, 1-(3-chloroallyl)-3,5,7-triaza-1-azoniaadamantane]", "values": [{"measurement": "Dosage required for complete bacterial reduction (ppm), CTAC", "setting": "[1]; [7]", "value": ">159", "unit": "ppm"}, {"measurement": "Dosage required for complete bacterial reduction (ppm), CTAC", "setting": "[2]; [7]", "value": 87.5, "unit": "ppm"}, {"measurement": "Dose required for ≧4 log10 bacteria reduction (ppm), CTAC", "setting": "[3]; [8]", "value": ">750", "unit": "ppm"}, {"measurement": "Dose required for ≧4 log10 bacteria reduction (ppm), CTAC", "setting": "[3]; [9]", "value": ">750", "unit": "ppm"}, {"measurement": "Lowest biocide concentration required for ≧99.9% bacterial reduction for 2 h, 1 day, and 7 days (ppm), CTAC", "setting": "[4]; [7]", "value": 180, "unit": "ppm"}, {"measurement": "Lowest biocide concentration required for ≧99.9% bacterial reduction for 2 h, 1 day, and 7 days (ppm), CTAC", "setting": "[5]; [7]", "value": ">360.0", "unit": "ppm"}, {"measurement": "Dose required for >4 log10 bacterial reduction vs. control, CTAC", "setting": "[6]; [8]", "value": ">750"}, {"measurement": "Dose required for >4 log10 bacterial reduction vs. control, CTAC", "setting": "[6]; [10]", "value": ">750"}]}
{"smiles": "O=[N+]([O-])C(CO)(CO)CO", "note": "[tris nitro, tris(hydroxymethyl)nitromethane]", "values": [{"measurement": "Dosage required for complete bacterial reduction (ppm), tris nitro", "setting": "[1]; [11]", "value": 104.6, "unit": "ppm"}, {"measurement": "Dosage required for complete bacterial reduction (ppm), tris nitro", "setting": "[2]; [11]", "value": 29.6, "unit": "ppm"}]}
{"smiles": "O=[N+]([O-])C(Br)(CO)CO", "note": "[bnpd, 2-bromo-2-nitropropane-1,3-diol]", "values": [{"measurement": "Dose required for >4 log10 bacterial reduction vs. control, bnpd", "setting": "[6]; [8]", "value": 32}, {"measurement": "Dose required for >4 log10 bacterial reduction vs. control, bnpd", "setting": "[6]; [10]", "value": ">200"}]}
{"smiles": "OCCN1CN(CCO)CN(CCO)C1", "note": "[HHT, hexahydro-1,3,5-tris(2-hydroxyethyl)-s-triazine]", "values": [{"measurement": "Dosage required for complete bacterial reduction (ppm), HHT", "setting": "[1]; [12]", "value": 94.2, "unit": "ppm"}, {"measurement": "Dosage required for complete bacterial reduction (ppm), HHT", "setting": "[2]; [12]", "value": 113.8, "unit": "ppm"}]}
{"smiles": "N#CC(Br)(Br)C(N)=O", "note": "[DBNPA, 2,2-dibromo-3-nitrilopropionamide]", "values": [{"measurement": "Dosage required for complete bacterial reduction (ppm), DBNPA", "setting": "[1]; [13]", "value": 8.9, "unit": "ppm"}, {"measurement": "Dosage required for complete bacterial reduction (ppm), DBNPA", "setting": "[1]; [14]", "value": 8.9, "unit": "ppm"}, {"measurement": "Dosage required for complete bacterial reduction (ppm), DBNPA", "setting": "[1]; [15]", "value": 9.9, "unit": "ppm"}, {"measurement": "Dosage required for complete bacterial reduction (ppm), DBNPA", "setting": "[2]; [13]", "value": 9.1, "unit": "ppm"}, {"measurement": "Dosage required for complete bacterial reduction (ppm), DBNPA", "setting": "[2]; [14]", "value": 7.0, "unit": "ppm"}, {"measurement": "Dosage required for complete bacterial reduction (ppm), DBNPA", "setting": "[2]; [15]", "value": 8.9, "unit": "ppm"}, {"measurement": "Dose required for ≧4 log10 bacteria reduction (ppm), DBNPA", "setting": "[3]; [8]", "value": ">167", "unit": "ppm"}, {"measurement": "Dose required for ≧4 log10 bacteria reduction (ppm), DBNPA", "setting": "[3]; [9]", "value": ">250", "unit": "ppm"}, {"measurement": "Lowest biocide concentration required for ≧99.9% bacterial reduction for 2 h, 1 day, and 7 days (ppm), DBNPA", "setting": "[4]; [13]", "value": ">120", "unit": "ppm"}, {"measurement": "Lowest biocide concentration required for ≧99.9% bacterial reduction for 2 h, 1 day, and 7 days (ppm), DBNPA", "setting": "[5]; [13]", "value": 60.0, "unit": "ppm"}, {"measurement": "Dose required for >4 log10 bacterial reduction vs. control, DBNPA", "setting": "[6]; [8]", "value": "<12"}, {"measurement": "Dose required for >4 log10 bacterial reduction vs. control, DBNPA", "setting": "[6]; [10]", "value": ">75"}]}
